Data on 66 compounds can be found in patent publication US9393221B2, “Methods and compounds for reducing intracellular lipid storage” (THE GENERAL HOSPITAL CORPORATION, priority 2011, dated 2016).

For the assay, the system named is ATGL-KO iPSCs. Description: High throughput iPSC chemical screening, Oil Red O (ORO) lipid accumulation. On Z-score: test concentration or dose not given here. The format is cell-based, mouse. Conditions: for Z-score: normalized ORO level vs DMSO-treated cells, compound present during 7 days differentiation, 96-well, negative = decrease in lipid accumulation; for Rank in normalized ORO score from screen: glycolytic switch compounds.

Where a name gives a salt, the structure may show the parent alone.

`COc1c2ccoc2nc2c(OC)c(OCC(O)C(C)(C)O)ccc12` (stereo not drawn) [Evoxine] gave a Z-score of −0.3336.

`NC(N)=Nc1nc(CSCCC(N)=NS(N)(=O)=O)cs1` [Famotidine] displayed a Z-score of −1.1457.

Compound `CC(C)c1c(CN(C)C(C)Cc2ccccc2)n(C)n(-c2ccccc2)c1=O` (stereo not drawn) [Famprofazone] came in with a Z-score of 0.6911. On the same count and under the same terms, the figure for `O=C(O)Cc1ccc(-c2ccccc2)cc1` [Felbinac] is −0.9529; for `CCOC(=O)C1=C(C)NC(C)=C(C(=O)OC)C1c1cccc(Cl)c1Cl` (stereo not drawn) [Felodipine] it is 1.337; for `COC(=O)Nc1nc2ccc(Sc3ccccc3)cc2[nH]1` [Fenbendazole] it is 16.3822.

In turn, `O=C(O)CCC(=O)c1ccc(-c2ccccc2)cc1` [Fenbufen] showed a Z-score of −0.3877. For the compound `CC(NCCC(c1ccccc1)c1ccccc1)c1ccccc1` (stereo not drawn) [Fendiline hydrochloride, reference compound], the “Rank in normalized ORO score from screen” value was found to be 1 and the Z-score was −2.53. The compound `CC(C)OC(=O)C(C)(C)Oc1ccc(C(=O)c2ccc(Cl)cc2)cc1` [Fenofibrate] had a Z-score of −1.6051. `CC(C(=O)O)c1cccc(Oc2ccccc2)c1` (stereo not drawn) [Fenoprofen calcium salt dihydrate] showed a Z-score of −0.4668. Same read-out and setting: the figure for `CC(Cc1ccc(O)cc1)NCC(O)c1cc(O)cc(O)c1` (stereo not drawn) [Fenoterol hydrobromide] is −0.7445; for `O=C1NCC2(CCN(CCc3ccccc3)CC2)O1` [Fenspiride hydrochloride] it is 0.2827. Same read-out and setting: next, `COc1cc(C(=O)OC2CC3CCC(C2)N3C)ccc1O` (stereo not drawn) [Fillalbin]: 0.7621.

Take `CC(C)(C)NC(=O)[C@H]1CC[C@H]2[C@@H]3CC[C@H]4NC(=O)C=C[C@]4(C)[C@H]3CC[C@]12C` [Finasteride]: the Z-score was found to be 1.067. Still for that read-out and setting: next, `O=C(COc1ccc(Cl)cc1)N1CCN(Cc2ccc3c(c2)OCO3)CC1` [Fipexide hydrochloride]: −0.9747; `Cc1c(-c2ccccc2)oc2c(C(=O)OCCN3CCCCC3)cccc2c1=O` [Flavoxate hydrochloride]: 0.3535; `O=C(NCC1CCCCN1)c1cc(OCC(F)(F)F)ccc1OCC(F)(F)F` (stereo not drawn) [Flecainide acetate]: −0.9948. Still for that read-out and setting: the figure for `CS(=O)(=O)c1ccc([C@@H](O)[C@@H](CF)NC(=O)C(Cl)Cl)cc1` [Florfenicol] is 31.4352. Still for that read-out and setting: the figure for `Cc1onc(-c2c(F)cccc2Cl)c1C(=O)N[C@@H]1C(=O)N2[C@@H]1SC(C)(C)[C@@H]2C(=O)O` [Flucloxacillin sodium] is 0.5241; for `Nc1[nH]c(=O)ncc1F` [Flucytosine] it is −0.8908; for `CC(=O)OCC(=O)[C@@]1(O)CC[C@H]2[C@@H]3CCC4=CC(=O)CC[C@]4(C)[C@@]3(F)[C@@H](O)C[C@@]21C` [Fludrocortisone acetate] it is −0.9911. The compound `O=C(O)c1ccccc1Nc1cccc(C(F)(F)F)c1` [Flufenamic acid] had a Z-score of −0.8139. Same read-out and setting: the figure for `CC1CCc2cc(F)cc3c(=O)c(C(=O)O)cn1c23` (stereo not drawn) [Flumequine] is −0.8648; for `Fc1ccc(C(c2ccc(F)cc2)N2CCN(C/C=C/c3ccccc3)CC2)cc1` [Flunarizine dihydrochloride] it is 0.2207.

For `CC1(C)O[C@@H]2C[C@H]3[C@@H]4C[C@H](F)C5=CC(=O)C=C[C@]5(C)[C@H]4[C@@H](O)C[C@]3(C)[C@]2(C(=O)CO)O1` [Flunisolide], the Z-score was found to be 0.2241.

The compound `Cc1c(Nc2ncccc2C(=O)O)cccc1C(F)(F)F` [Flunixin meglumine] gave a Z-score of −1.0122. On the same count and under the same terms, next, `CC(=O)OCC(=O)[C@@]12OC(C)(C)O[C@@H]1C[C@H]1[C@@H]3C[C@H](F)C4=CC(=O)C=C[C@]4(C)[C@@]3(F)[C@@H](O)C[C@@]12C` [Fluocinonide]: 0.3846; `C/C=C1/C[N@+]2(C)CC[C@]34C(=C(C=O)[C@H]1C[C@@H]32)Nc1ccccc14.[Cl-]` [Fluorocurarine chloride]: −1.1648; `CC(=O)[C@@]1(O)CC[C@H]2[C@@H]3C[C@H](C)C4=CC(=O)C=C[C@]4(C)[C@@]3(F)[C@@H](O)C[C@@]21C` [Fluorometholone]: 0.1317. The same measure, in the same setting: the figure for `CNCCC(Oc1ccc(C(F)(F)F)cc1)c1ccccc1` (stereo not drawn) [Fluoxetine hydrochloride] is −1.0533; for `Cl.Cl.OCCN1CCN(CC/C=C2/c3ccccc3Sc3ccc(C(F)(F)F)cc32)CC1` [Flupentixol dihydrochloride cis-(Z)] it is −0.5309.

In turn, `OCCN1CCN(CCCN2c3ccccc3Sc3ccc(C(F)(F)F)cc32)CC1` [Fluphenazine dihydrochloride] came in with a Z-score of 0.4317. The same measure, in the same setting: next, `CC1(C)O[C@@H]2C[C@H]3[C@@H]4C[C@H](F)C5=CC(=O)CC[C@]5(C)[C@H]4[C@@H](O)C[C@]3(C)[C@]2(C(=O)CO)O1` [Flurandrenolide]: −0.0402; `CC(C(=O)O)c1ccc(-c2ccccc2)c(F)c1` (stereo not drawn) [Flurbiprofen]: −1.4.

For the compound `O=C1NCN(c2ccccc2)C12CCN(CCCC(c1ccc(F)cc1)c1ccc(F)cc1)CC2` [Fluspirilen, reference compound], the “Rank in normalized ORO score from screen” value turned out to be 40 and the Z-score was −1.6301. Regarding `CC(C)C(=O)Nc1ccc([N+](=O)[O-])c(C(F)(F)F)c1` [Flutamide], the Z-score is −0.5472.

`CCC(=O)O[C@]1(C(=O)SCF)[C@H](C)C[C@H]2[C@@H]3C[C@H](F)C4=CC(=O)C=C[C@]4(C)[C@@]3(F)[C@@H](O)C[C@@]21C` [Fluticasone propionate] yielded a Z-score of −1.0154. Compound `CC(C)n1c(/C=C/C(O)CC(O)CC(=O)O)c(-c2ccc(F)cc2)c2ccccc21` (stereo not drawn) [Fluvastatin sodium salt] returned a Z-score of 9.993.

Turning to `COCCCC/C(=N\OCCN)c1ccc(C(F)(F)F)cc1` [Fluvoxamine maleate], the Z-score was −1.2293. Still for that read-out and setting: next, `Nc1nc2ncc(CNc3ccc(C(=O)N[C@@H](CCC(=O)O)C(=O)O)cc3)nc2c(=O)[nH]1` [Folic acid]: 1.253. The same measure, in the same setting: next, `Nc1nc(=O)c2c([nH]1)NCC(CNc1ccc(C(=O)N[C@@H](CCC(=O)[O-])C(=O)[O-])cc1)N2C=O.[Ca+2]` (stereo partly drawn) [Folinic acid calcium salt]: −0.7409. Still for that read-out and setting: the figure for `O=C(O)c1ccccc1OP(=O)(O)O` [Fosfosal] is −1.2351. For `O=C1OC(CN2CCOCC2)CN1/N=C/c1ccc([N+](=O)[O-])o1` (stereo not drawn) [Furaltadone hydrochloride], the Z-score is −0.4516. Still for that read-out and setting: next, `NS(=O)(=O)c1cc(C(=O)O)c(NCc2ccco2)cc1Cl` [Furosemide]: 0.5074. Regarding `CCCCc1ccc(C(=O)O)nc1` [Fusaric acid], the Z-score was −0.977. `CC(=O)O[C@H]1C[C@@]2(C)[C@@H](C[C@@H](O)[C@H]3[C@@]4(C)CC[C@@H](O)[C@@H](C)[C@@H]4CC[C@@]32C)/C1=C(\CCC=C(C)C)C(=O)O` [Fusidic acid sodium salt] came in with a Z-score of 0.9973.

For the compound `Fc1ccc(C(OCCN2CCN(CCCc3ccccc3)CC2)c2ccc(F)cc2)cc1` [GBR 12909 dihydrochloride], the “Rank in normalized ORO score from screen” value was found to be 208 and the Z-score was −1.0102. Turning to `NCC1(CC(=O)O)CCCCC1` [Gabapentin], the Z-score is given as −0.2478. The same measure, in the same setting: the figure for `COc1ccc(-c2ccc(=N)n(CCCC(=O)O)n2)cc1` [Gabazine] is −0.1416.

The compound `CCOC(=O)c1ccc(OC(=O)CCCCCN=C(N)N)cc1.CS(=O)(=O)O` [Gabexate mesilate] had a Z-score of −1.4041. The same measure, in the same setting: next, `COc1ccc2c3c1O[C@H]1C[C@@H](O)C=C[C@@]31CCN(C)C2` [Galanthamine hydrobromide]: −0.7931; `CC[N+](CC)(CC)CCOc1cccc(OCC[N+](CC)(CC)CC)c1OCC[N+](CC)(CC)CC` [Gallamine triethiodide]: 0.8644. In the case of `Nc1nc(O)c2ncn(COC(CO)CO)c2n1` [Ganciclovir], the Z-score was −0.9945. Compound `C=C[C@]12CN(C)[C@@H]3[C@H]4CO[C@H](C[C@H]41)[C@]1(C(=O)Nc4ccccc41)[C@@H]32` [Gelsemine] registered a Z-score of −0.4693. The same measure, in the same setting: the figure for `Cc1ccc(C)c(OCCCC(C)(C)C(=O)O)c1` [Gemfibrozil] is −0.2634. Same read-out and setting: next, `C=C1C[C@]23C[C@@]1(O)CC[C@H]2[C@@]12C=C[C@H](O)[C@@](C)(C(=O)O1)[C@H]2[C@@H]3C(=O)O` [Gibberellic acid]: 0.8089; `C[C@@H]1C(=O)O[C@H]2C[C@@]34[C@H]5C[C@@H](C(C)(C)C)[C@]36[C@@H](OC(=O)[C@@H]6O)O[C@@]4(C(=O)O5)[C@]21O` [Ginkgolide A]: −0.1024.

The compound `O=C(OCC(O)CO)c1ccccc1Nc1ccnc2cc(Cl)ccc12` (stereo not drawn) [Glafenine hydrochloride] yielded a Z-score of −0.4014. On to `COc1ccc(Cl)cc1C(=O)NCCc1ccc(S(=O)(=O)NC(=O)NC2CCCCC2)cc1` [Glibenclamide], for which the Z-score is on record as 0.3112. On the same count and under the same terms, next, `Cc1ccc(S(=O)(=O)NC(=O)NN2CC3CCCC3C2)cc1` (stereo not drawn) [Gliclazide]: 0.2404; `CCC1=C(C)CN(C(=O)NCCc2ccc(S(=O)(=O)NC(=O)N[C@H]3CC[C@H](C)CC3)cc2)C1=O` [Glimepiride]: 0.1043; `Cc1cnc(C(=O)NCCc2ccc(S(=O)(=O)NC(=O)NC3CCCCC3)cc2)cn1` [Glipizide]: −0.2981.

Compound `COc1ccc2c(c1)C(=O)N(CCc1ccc(S(=O)(=O)NC(=O)NC3CCCCC3)cc1)C(=O)C2(C)C` [Gliquidone] yielded a Z-score of −0.9495. Still for that read-out and setting: next, `CCC1(c2ccc(N)cc2)CCC(=O)NC1=O` (stereo not drawn) [Glutethimide, para-amino]: 0.2858; `C[C@H](CCC(=O)NCC(=O)O)[C@H]1CC[C@H]2[C@@H]3[C@H](O)C[C@@H]4C[C@H](O)CC[C@]4(C)[C@H]3C[C@H](O)[C@]12C` [Glycocholic acid]: −0.6342; `C[N+]1(C)CCC(OC(=O)C(O)(c2ccccc2)C2CCCC2)C1` (stereo not drawn) [Glycopyrrolate]: −0.6161.
